Values of other authors, collected in patent US20070149578A1, “Combination Therapy” (Pfizer, Inc., priority 2000, published 2007).

Assays:
calcium channel = conditions: see International Patent Application Number PCT/EP94/02697
[1] = tested on: smooth muscle cell migration; conditions: see International Patent Application Number PCT/EP95/00847

SMILES | calcium channel blocking activity (calcium channel) | inhibitor of smooth muscle cell migration [1]
CCOC(=O)C1=C(COCCN)NC(C)=C(C(=O)OC)[C@H]1c1ccccc1Cl (single isomer, unassigned) [R(+) isomer] | little or no calcium channel blocking activity | potent inhibitor
CCOC(=O)C1=C(COCCN)NC(C)=C(C(=O)OC)[C@@H]1c1ccccc1Cl (single isomer, unassigned) [S(−) isomer] | substantially confined to the S(−) isomer | –
